Patent US12060347B2 (BRISTOL-MYERS SQUIBB COMPANY, priority 2016, dated 2024)

Molecular target: T1, human PAR4 (Homo sapiens, UniProt Q96RI0)
T1 construct: expressed in transfected cells; host or cells: HEK293 PAR4 Clone 1.2A (BMS Arctic ID 383940)
T1 sequence (Q96RI0 18-385): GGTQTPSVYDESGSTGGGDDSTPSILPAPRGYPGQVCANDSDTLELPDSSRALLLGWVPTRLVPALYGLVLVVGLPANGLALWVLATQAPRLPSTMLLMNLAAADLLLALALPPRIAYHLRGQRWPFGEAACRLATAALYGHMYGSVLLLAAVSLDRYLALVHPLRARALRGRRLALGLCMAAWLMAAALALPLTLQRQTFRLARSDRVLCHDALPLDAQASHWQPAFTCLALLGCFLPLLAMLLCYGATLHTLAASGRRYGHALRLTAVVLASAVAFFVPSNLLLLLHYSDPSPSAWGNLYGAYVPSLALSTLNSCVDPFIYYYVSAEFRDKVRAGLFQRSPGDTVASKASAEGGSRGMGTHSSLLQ
Assay: PAR4 FLIPR assay: antagonism of agonist-peptide-induced calcium mobilization in PAR4-expressing HEK293 cells
Assay type: cell-based
Conditions: H-Ala-Phe(4-F)-[…]NH2-induced intracellular calcium mobilization, 11-point curves

| IC50 | Structure (SMILES) |
| --- | --- |
| 2 nM | COCc1cc(OC)cc2sc(-c3cc(C)cc4nc(OC)cnc34)nc12 [Example 808, 6-methoxy-2-(2-methoxy-7-methylquinoxalin-5-yl)-4-(methoxymethyl)benzo[d]thiazole] |
| 54 nM | COc1cnc2c(-c3nc4cnccc4s3)cc(C)cc2n1 [Example 809, 2-(2-methoxy-7-methylquinoxalin-5-yl)thiazolo[4,5-c]pyridine] |
| 6.9 nM | COc1cnc2c(-c3nc4cc(F)c(OCCOC(=O)Nc5cccnc5)nc4s3)cc(C)cc2n1 [Example 810, 2-((6-fluoro-2-(2-methoxy-7-methylquinoxalin-5-yl)thiazolo[5,4-b]pyridin-5-yl)oxy)ethyl pyridin-3-ylcarbamate] |
| 1.5 nM | COc1cnc2c(-c3nc4cc(F)c(OCCOC(=O)Nc5cnc(F)c(C)c5)nc4s3)cc(C)cc2n1 [Example 811, 2-((6-fluoro-2-(2-methoxy-7-methylquinoxalin-5-yl)thiazolo[5,4-b]pyridin-5-yl)oxy) ethyl (6-fluoro-5-methylpyridin-3-yl)carbamate] |
| 7 nM | COc1cnc2c(-c3nc4c(C)cc(OCCOC(=O)Nc5ccc(-c6cccs6)nc5)nc4s3)cc(C)cc2n1 [Example 812, 2-((2-(2-methoxy-7-methylquinoxalin-5-yl)-7-methylthiazolo[5,4-b]pyridin-5-yl)oxy) ethyl (6-(thiophen-2-yl)pyridin-3-yl)carbamate] |
| 1 nM | CCOc1cnc2c(-c3nc4cc(F)c(OC[C@@H](C)OC(=O)Nc5cnc(C)nc5)nc4s3)cc(C)cc2n1 [Example 813, (R)-1-((2-(2-ethoxy-7-methylquinoxalin-5-yl)-6-fluorothiazolo[5,4-b]pyridin-5-yl)oxy)propan-2-yl (2-methylpyrimidin-5-yl)carbamate] |
| 7.2 nM | CCOc1cnc2c(-c3nc4cc(F)c(OC[C@@H](C)OC(=O)Nc5cnc(OCCO)nc5)nc4s3)cc(C)cc2n1 [Example 814, (R)-1-((2-(2-ethoxy-7-methylquinoxalin-5-yl)-6-fluorothiazolo[5,4-b]pyridin-5-yl)oxy)propan-2-yl (2-(2-hydroxyethoxy)pyrimidin-5-yl)carbamate] |
| 6.4 nM | CCOc1cnc2c(-c3nc4cc(F)c(OC[C@@H](C)OC(=O)Nc5cnc(OC[C@@H](C)O)nc5)nc4s3)cc(C)cc2n1 [Example 815, (R)-1-((2-(2-ethoxy-7-methylquinoxalin-5-yl)-6-fluorothiazolo[5,4-b]pyridin-5-yl)oxy) propan-2-yl (2-((R)-2-hydroxypropoxy)pyrimidin-5-yl)carbamate] |
| 10 nM | CCOc1cnc2c(-c3nc4cc(F)c(O[C@@H](C)[C@@H](C)OC(=O)Nc5cnc(CO)nc5)nc4s3)cc(C)cc2n1 [Example 816] |
| 3.6 nM | CCOc1cnc2c(-c3nc4c(C(O)C(C)(C)C)cc(OC)cc4s3)cc(C)cc2n1 (stereo not shown) [Example 817, 1-(2-(2-ethoxy-7-methylquinoxalin-5-yl)-6-methoxybenzo[d]thiazol-4-yl)-2,2-dimethylpropan-1-ol] |

The remaining lines, values behind:

| Structure (SMILES) | IC50 |
| --- | --- |
| COc1cnc2c(-c3nc4cc(F)c(O[C@@H](C)[C@@H](C)OC(=O)Nc5ccc(F)nc5)cc4s3)cc(Cl)cc2c1 [Example 789, (2R,3S)-3-((2-(6-chloro-3-methoxyquinolin-8-yl)-5-fluorobenzo[d]thiazol-6-yl)oxy)butan-2-yl (6-fluoropyridin-3-yl)carbamate] | 2.4 nM |
| COc1cnc2c(-c3nc4cc(F)c(O[C@@H](C)[C@@H](C)OC(=O)Nc5ccncc5)cc4s3)cc(Cl)cc2c1 [Example 790, (2R,3S)-3-((2-(6-chloro-3-methoxyquinolin-8-yl)-5-fluorobenzo[d]thiazol-6-yl)oxy)butan-2-yl pyridin-4-ylcarbamate] | 4.4 nM |
| COc1cnc2c(-c3nc4cc(F)c(O[C@@H](C)[C@@H](C)OC(=O)Nc5cnc(C)nc5)nc4s3)cc(C)cc2c1 [Example 791, (2R,3S)-3-((6-fluoro-2-(3-methoxy-6-methylquinolin-8-yl)thiazolo[5,4-b]pyridin-5-yl)oxy)butan-2-yl (2-methylpyrimidin-5-yl)carbamate] | 2.3 nM |
| COc1cnc2c(-c3nc4cc(F)c(O[C@@H](C)[C@@H](C)OC(=O)Nc5cnc(CO)nc5)nc4s3)cc(C)cc2c1 [Example 792, (2R,3S)-3-((6-fluoro-2-(3-methoxy-6-methylquinolin-8-yl)thiazolo[5,4-b]pyridin-5-yl)oxy)butan-2-yl (2-(hydroxymethyl)pyrimidin-5-yl)carbamate] | 11 nM |
| COc1cnc2c(-c3nc4cc(F)c(O[C@@H](C)[C@@H](C)OC(=O)Nc5cnc(CO)nc5)nc4s3)cc(Cl)cc2c1 [Example 793, (2R,3S)-3-((2-(6-chloro-3-methoxyquinolin-8-yl)-6-fluorothiazolo[5,4-b]pyridin-5-yl)oxy)butan-2-yl (2-(hydroxymethyl)pyrimidin-5-yl)carbamate] | 24 nM |
| COc1cnc2c(-c3nc4cc(F)c(OC[C@@H](C)OC(=O)Nc5cnc(CO)nc5)nc4s3)cc(Cl)cc2c1 [Example 794, (R)-1-((2-(6-chloro-3-methoxyquinolin-8-yl)-6-fluorothiazolo[5,4-b]pyridin-5-yl)oxy)propan-2-yl (2-(hydroxymethyl)pyrimidin-5-yl)carbamate] | 10 nM |
| COc1cnc2c(-c3nc4c(Cl)c(F)c(O[C@@H](C)[C@@H](C)OC(=O)Nc5cnc(OCCO)nc5)cc4s3)cc(Cl)cc2c1 [Example 795, (2R,3S)-3-((4-chloro-2-(6-chloro-3-methoxyquinolin-8-yl)-5-fluorobenzo[d]thiazol-6-yl)oxy)butan-2-yl (2-(2-hydroxyethoxy)pyrimidin-5-yl)carbamate] | 0.8 nM |
| COc1cnc2c(-c3nc4c(Cl)c(F)c(O[C@@H](C)[C@@H](C)OC(=O)Nc5cnc(OC[C@@H](C)O)nc5)cc4s3)cc(Cl)cc2c1 [Example 796, (2R,3S)-3-((4-chloro-2-(6-chloro-3-methoxyquinolin-8-yl)-5-fluorobenzo[d]thiazol-6-yl)oxy)butan-2-yl (2-((R)-2-hydroxypropoxy)pyrimidin-5-yl)carbamate] | 1.3 nM |
| COc1cnc2c(-c3nc4c(Cl)c(F)c(O[C@@H](C)[C@@H](C)OC(=O)Nc5ccc(F)nc5)cc4s3)cc(Cl)cc2c1 [Example 797, (2R,3S)-3-((4-chloro-2-(6-chloro-3-methoxyquinolin-8-yl)-5-fluorobenzo[d]thiazol-6-yl)oxy)butan-2-yl (6-fluoropyridin-3-yl)carbamate] | 3.1 nM |
| COc1cnc2c(-c3nc4c(Cl)c(F)c(O[C@@H](C)[C@@H](C)OC(=O)Nc5ccncc5)cc4s3)cc(Cl)cc2c1 [Example 798, (2R,3S)-3-((4-chloro-2-(6-chloro-3-methoxyquinolin-8-yl)-5-fluorobenzo[d]thiazol-6-yl)oxy)butan-2-yl pyridin-4-ylcarbamate] | 2.5 nM |
| COc1cnc2c(-c3nc4c(Cl)c(F)c(O[C@@H](C)[C@@H](C)OC(=O)Nc5cccnc5)cc4s3)cc(Cl)cc2c1 [Example 799, (2R,3S)-3-((4-chloro-2-(6-chloro-3-methoxyquinolin-8-yl)-5-fluorobenzo[d]thiazol-6-yl)oxy)butan-2-yl pyridin-3-ylcarbamate] | 2.9 nM |
| COc1cnc2c(-c3nc4c(Cl)c(F)c(O[C@@H](C)[C@@H](C)OC(=O)Nc5cnc(C)c(C)c5)cc4s3)cc(Cl)cc2c1 [Example 800, (2R,3S)-3-((4-chloro-2-(6-chloro-3-methoxyquinolin-8-yl)-5-fluorobenzo[d]thiazol-6-yl)oxy)butan-2-yl (5,6-dimethylpyridin-3-yl)carbamate] | 2.5 nM |
| COc1cnc2c(-c3nc4c(Cl)c(F)c(O[C@@H](C)[C@@H](C)OC(=O)Nc5ccc(OC)nc5)cc4s3)cc(Cl)cc2c1 [Example 801, (2R,3S)-3-((4-chloro-2-(6-chloro-3-methoxyquinolin-8-yl)-5-fluorobenzo[d]thiazol-6-yl)oxy)butan-2-yl (6-methoxypyridin-3-yl)carbamate] | 2.6 nM |
| COc1cnc2c(-c3nc4c(Cl)c(F)c(O[C@@H](C)[C@@H](C)OC(=O)Nc5cncc(C#N)c5)cc4s3)cc(Cl)cc2c1 [Example 802, (2R,3S)-3-((4-chloro-2-(6-chloro-3-methoxyquinolin-8-yl)-5-fluorobenzo[d]thiazol-6-yl)oxy)butan-2-yl (5-cyanopyridin-3-yl)carbamate] | 2 nM |
| COc1cncc(NC(=O)O[C@H](C)[C@H](C)Oc2cc3sc(-c4cc(Cl)cc5cc(OC)cnc45)nc3c(Cl)c2F)c1 [Example 803, (2R,3S)-3-((4-chloro-2-(6-chloro-3-methoxyquinolin-8-yl)-5-fluorobenzo[d]thiazol-6-yl)oxy)butan-2-yl (5-methoxypyridin-3-yl)carbamate] | 3.5 nM |
| COc1cnc2c(-c3nc4c(Cl)c(F)c(O[C@@H](C)[C@@H](C)OC(=O)Nc5cncc(F)c5)cc4s3)cc(C)cc2c1 [Example 804, (2R,3S)-3-((4-chloro-5-fluoro-2-(3-methoxy-6-methylquinolin-8-yl)benzo[d]thiazol-6-yl)oxy)butan-2-yl (5-fluoropyridin-3-yl)carbamate] | 2.8 nM |
| COc1cnc2c(-c3nc4c(C(O)C(C)(C)C)cc(F)cc4s3)cc(C)cc2n1 (stereo not shown) [Example 806, 1-(6-fluoro-2-(2-methoxy-7-methylquinoxalin-5-yl)benzo[d]thiazol-4-yl)-2,2-dimethylpropan-1-ol] | 6.6 nM |
| COc1cnc2c(-c3nc4c(C(O)C(C)(C)C)cc(OC)nc4s3)cc(C)cc2n1 (stereo not shown) [Example 807, 1-(5-methoxy-2-(2-methoxy-7-methylquinoxalin-5-yl)thiazolo[5,4-b]pyridin-7-yl)-2,2-dimethylpropan-1-ol] | 2.6 nM |
